From the supplement of paper PMC8671470

Assays:
Settings in all cases: 72 h
MV4-11 [1] = assay: cell viability (% survival relative to DMSO control, bortezomib = 0%); higher = less cytotoxic
Summary of the method: (§1)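 After 72 h at 37 °C with 5% CO2, cell viability in 384-well plates was measured by CellTiter-Glo luminescence. The plates held compounds pre-printed at 1, 10, 100, 1000 or 10000 nM in duplicate, and cells from 10 AML and 5 CML lines seeded at densities titrated to linear growth. Percent survival is the duplicate mean, normalised to vehicle as 100% and a 10 µM positive control as 0%.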

MOLM-13 [2] = assay: as above
Summary of the method: as §1

NOMO-1 [3] = assay: as above
Summary of the method: as §1

SHI-1 [4] = assay: as above
Summary of the method: as §1

BV-173 [5] = assay: as above
Summary of the method: as §1

KCL-22 [6] = assay: as above
Summary of the method: as §1

HL-60 [7] = assay: as above
Summary of the method: as §1

Mono-Mac-6 [8] = assay: as above
Summary of the method: as §1

K-562 [9] = assay: as above
Summary of the method: as §1

KG-1 [10] = assay: as above
Summary of the method: as §1

KU-812 [11] = assay: as above
Summary of the method: as §1

THP-1 [12] = assay: as above
Summary of the method: as §1

ML-2 [13] = assay: as above
Summary of the method: as §1

HEL [14] = assay: as above
Summary of the method: as §1

LAMA-84 [15] = assay: as above
Summary of the method: as §1

MV4-11 [16] = system: MV4-11
Summary of the method: (§2)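 For the IC50, dose–response curves were fitted with a log-logistic model. The data came from fifteen myeloid leukaemia cell lines grown in RPMI 1640 at densities in the linear growth range and incubated in 384-well plates for 72 h at 37 °C under 5% CO2. Doses were five tenfold steps from 1 to 10,000 nM in duplicate, and luminescent ATP viability was normalised to vehicle and to a positive control at 10 µM before four-parameter fitting.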

MOLM-13 [17] = system: MOLM-13
Summary of the method: as §2

NOMO-1 [18] = system: NOMO-1
Summary of the method: as §2

SHI-1 [19] = system: SHI-1
Summary of the method: as §2

BV-173 [20] = system: BV-173
Summary of the method: as §2

KCL-22 [21] = system: KCL-22
Summary of the method: as §2

HL-60 [22] = system: HL-60
Summary of the method: as §2

Mono-Mac-6 [23] = system: Mono-Mac-6
Summary of the method: as §2

K-562 [24] = system: K-562
Summary of the method: as §2

KG-1 [25] = system: KG-1
Summary of the method: as §2

KU-812 [26] = system: KU-812
Summary of the method: as §2

THP-1 [27] = system: THP-1
Summary of the method: as §2

ML-2 [28] = system: ML-2
Summary of the method: as §2

HEL [29] = system: HEL
Summary of the method: as §2

LAMA-84 [30] = system: LAMA-84
Summary of the method: as §2

C=CCN(C)CCCCCCOc1ccc(C(=O)c2ccc(Br)cc2)c(F)c1.O=C(O)/C=C/C(=O)O [Ro 48-8071 fumarate]
cell viability [%]
Settings | 1 nM | 10 nM | 100 nM | 1000 nM | 10000 nM
BV-173 [5] | 90.3 | 86.2 | 66.2 | 63.3 | 29.5
HEL [14] | 112 | 102 | 102 | 109 | 86.7
HL-60 [7] | 115 | 88.4 | 84.3 | 98.8 | 24.7
K-562 [9] | 87 | 104 | 102 | 82.2 | 19.6
KCL-22 [6] | 99.6 | 98.6 | 96.3 | 87.4 | 77.5
KG-1 [10] | 110 | 101 | 78.5 | 80.7 | 52.3
KU-812 [11] | 90.2 | 92.4 | 76.2 | 80.7 | 43.3
LAMA-84 [15] | 90.6 | 100 | 81.1 | 83.8 | 47
ML-2 [13] | 106 | 98.5 | 106 | 96.4 | 68.9
MOLM-13 [2] | 132 | 113 | 88.9 | 89.1 | 62.2
MV4-11 [1] | 91.5 | 114 | 84.4 | 83.4 | 50.6
Mono-Mac-6 [8] | 92.2 | 87.6 | 92.4 | 96 | 63.8
NOMO-1 [3] | 104 | 97 | 98.1 | 105 | 92.7
SHI-1 [4] | 103 | 100 | 101 | 105 | 58.5
THP-1 [12] | 102 | 91.7 | 105 | 101 | 80.3

Settings | IC50 (cell viability) [µM]
BV-173 [20] | 1.79
HEL [29] | > 10
HL-60 [22] | 5.92
K-562 [24] | 2.06
KCL-22 [21] | > 10
KG-1 [25] | 6.11
KU-812 [26] | 9.97
LAMA-84 [30] | 8.49
ML-2 [28] | > 10
MOLM-13 [17] | > 10
MV4-11 [16] | 5.95
Mono-Mac-6 [23] | > 10
NOMO-1 [18] | > 10
SHI-1 [19] | > 10
THP-1 [27] | > 10

O=C(NCCN1CCC(n2c(O)nc3ccccc32)CC1)c1cc2cc(F)ccc2[nH]1 [FIPI]
cell viability [%]
Settings | 1 nM | 10 nM | 100 nM | 1000 nM | 10000 nM
BV-173 [5] | 96.9 | 101 | 99.9 | 99.3 | 58.9
HEL [14] | 99.1 | 99.8 | 101 | 104 | 82.5
HL-60 [7] | 105 | 103 | 112 | 97.7 | 92.2
K-562 [9] | 99.1 | 106 | 108 | 101 | 27.3
KCL-22 [6] | 100 | 98 | 91.1 | 94.9 | 67.7
KG-1 [10] | 101 | 92.4 | 103 | 91.2 | 65.1
KU-812 [11] | 104 | 92.9 | 105 | 106 | 66.2
LAMA-84 [15] | 99.3 | 103 | 103 | 98.6 | 70.5
ML-2 [13] | 96.3 | 98.6 | 107 | 110 | 75.8
MOLM-13 [2] | 79.6 | 104 | 98.9 | 95.4 | 69
MV4-11 [1] | 91.3 | 88.1 | 100 | 94.6 | 53.2
Mono-Mac-6 [8] | 104 | 107 | 106 | 70.6 | 64.5
NOMO-1 [3] | 96.7 | 95.4 | 110 | 102 | 95.3
SHI-1 [4] | 103 | 104 | 97.5 | 97.9 | 85
THP-1 [12] | 95.8 | 93.9 | 101 | 105 | 96.3

Settings | IC50 (cell viability) [µM]
BV-173 [20] | > 10
HEL [29] | > 10
HL-60 [22] | > 10
K-562 [24] | 6.19
KCL-22 [21] | > 10
KG-1 [25] | > 10
KU-812 [26] | > 10
LAMA-84 [30] | > 10
ML-2 [28] | > 10
MOLM-13 [17] | > 10
MV4-11 [16] | > 10
Mono-Mac-6 [23] | 8.61
NOMO-1 [18] | > 10
SHI-1 [19] | > 10
THP-1 [27] | > 10

Cc1nc(-c2ccccc2)sc1C(=O)Nc1ccc(S(N)(=O)=O)cc1
cell viability [%]
Settings | 1 nM | 10 nM | 100 nM | 1000 nM | 10000 nM
BV-173 [5] | 115 | 103 | 85.1 | 97.8 | 109
HEL [14] | 110 | 112 | 106 | 89.3 | 105
HL-60 [7] | 109 | 85 | 117 | 103 | 97.2
K-562 [9] | 103 | 109 | 105 | 114 | 109
KCL-22 [6] | 98.7 | 99.1 | 105 | 79.8 | 102
KG-1 [10] | 118 | 104 | 98.5 | 93.3 | 102
KU-812 [11] | 108 | 102 | 96.4 | 91 | 104
LAMA-84 [15] | 107 | 99.9 | 102 | 96.2 | 111
ML-2 [13] | 111 | 104 | 99.8 | 107 | 100
MOLM-13 [2] | 102 | 112 | 127 | 106 | 99.7
MV4-11 [1] | 106 | 112 | 105 | 105 | 93.8
Mono-Mac-6 [8] | 121 | 102 | 98.7 | 97.3 | 108
NOMO-1 [3] | 113 | 98.2 | 96.6 | 101 | 99.6
SHI-1 [4] | 109 | 106 | 104 | 103 | 111
THP-1 [12] | 107 | 103 | 97 | 94.7 | 97.7

Settings | IC50 (cell viability) [µM]
BV-173 [20] | > 10
HEL [29] | > 10
HL-60 [22] | > 10
K-562 [24] | > 10
KCL-22 [21] | > 10
KG-1 [25] | > 10
KU-812 [26] | > 10
LAMA-84 [30] | > 10
ML-2 [28] | > 10
MOLM-13 [17] | > 10
MV4-11 [16] | > 10
Mono-Mac-6 [23] | > 10
NOMO-1 [18] | > 10
SHI-1 [19] | > 10
THP-1 [27] | > 10
